The values below come from patent US20070021509A1, “Phosphate transport inhibitors” (priority 2001, published 2007).

Each structure is given as a SMILES string.

The test system of one assay is phosphate uptake by rabbit intestinal Brush Border Membrane Vesicles (BBMV). The assay can be described thus: 33PO4 uptake in rabbit intestinal BBMV (HTS), phosphate transporter inhibition in vitro. The conditions noted are these: Table 1, phosphate uptake, read-out: IC50. Type of assay: biochemical. The essentials: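 BBMV from duodenal mucosa of male New Zealand White rabbits, diluted to about 0.5-2.0 mg/mL protein. Uptake buffers carried 33PO4 at 200,000 CPM/19 μL. Controls: Na uptake buffer (max), plus 100 μM KH2PO4 pH 7.4 (mid), K uptake buffer (min).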
As for `Cc1ccc(S(=O)(=O)Nc2ccc(Br)cc2C(=O)O)cc1[N+](=O)[O-]` [Compound 20], the concentration for half-maximal inhibition (IC50) is 101 to 500 µM. The same measure, in the same setting: in the case of `O=C(O)c1ccc(S(=O)(=O)Nc2ccc(Br)cc2C(=O)O)cc1` [Compound 47] it was above 1500 µM; in that of `O=C(O)c1cc(Br)ccc1NS(=O)(=O)c1ccc(Cl)c([N+](=O)[O-])c1` [Compound 12], 101 to 500 µM; in that of `C=Cc1ccc(S(=O)(=O)Nc2ccc(Br)cc2C(=O)O)cc1` [Compound 30], 101 to 500 µM. Regarding `O=C(O)c1cc(Br)ccc1NS(=O)(=O)c1ccc(Cl)c([N+](=O)[O-])c1` [Compound 15], the IC50 lay within 101 to 500 µM. In the case of `O=C(O)c1cc(Br)ccc1NS(=O)(=O)c1ccc(C(F)(F)F)cc1` [Compound 7], the concentration for half-maximal inhibition (IC50) was 51 to 100 µM. For `O=C(O)c1cc(Br)ccc1NS(=O)(=O)c1ccccc1F` [Compound 25], the IC50 was in the range of 101 to 500 µM. On the same count and under the same terms, under `O=C(O)c1cc(Br)ccc1NS(=O)(=O)c1ccccc1C(F)(F)F` [Compound 26] stands 101 to 500 µM. Same read-out and setting: in the case of `O=C(O)c1cc(Br)ccc1NS(=O)(=O)c1cc(Cl)c(Cl)cc1Cl` [Compound 4] it was 51 to 100 µM; in that of `COc1ccc(S(=O)(=O)Nc2ccc(Br)cc2C(=O)O)cc1` [Compound 37], 501 to 1000 µM; in that of `O=C(O)c1cc(Br)ccc1NS(=O)(=O)c1ccc(I)cc1` [Compound 24], 101 to 500 µM. `O=C(O)c1cc(Br)ccc1NS(=O)(=O)c1ccc(OC(F)(F)F)cc1` [Compound 2]: the 50% inhibitory concentration (IC50) is below 50 µM.

For `O=C(O)c1cc(Br)ccc1NS(=O)(=O)c1ccc([N+](=O)[O-])cc1` [Compound 33], the half-inhibitory concentration (IC50) fell in the range of 101 to 500 µM.

Still in this assay, the particulars now being: Table 2, phosphate uptake, read-out: IC50.
For `Cc1ccccc1CNC(=O)c1cc(Br)ccc1NS(=O)(=O)c1ccc(OC(F)(F)F)cc1` [Compound 67], the IC50 was in the range of 51 to 100 µM. Same read-out and setting: in the case of `COc1ccc(S(=O)(=O)Nc2ccc(Br)cc2C(=O)Nc2ccccc2F)cc1[N+](=O)[O-]` [Compound 102] it was 51 to 100 µM; in that of `O=C(Nc1cc(Cl)ccc1Cl)c1cc(Br)ccc1NS(=O)(=O)c1ccc(Cl)c([N+](=O)[O-])c1` [Compound 112], below 50 µM; in that of `Cc1ccc(NC(=O)c2cc(Br)ccc2NS(=O)(=O)c2ccc(OC(F)(F)F)cc2)cc1` [Compound 57], 51 to 100 µM. Consider `O=C(NCc1cc(C(F)(F)F)cc(C(F)(F)F)c1)c1cc(Br)ccc1NS(=O)(=O)c1ccc(OC(F)(F)F)cc1` [Compound 69], for which the IC50 was 101 to 500 µM. Still for that read-out and setting: under `O=C(Nc1ccccc1Br)c1cc(Br)ccc1NS(=O)(=O)c1ccc(Cl)cc1` [Compound 90] stands 101 to 500 µM. On the same count and under the same terms, in the case of `Cc1cccc(CNC(=O)c2cc(Br)ccc2NS(=O)(=O)c2ccc(OC(F)(F)F)cc2)c1` [Compound 58] it was 51 to 100 µM; in that of `O=C(Nc1ccc(Cl)cc1Cl)c1cc(Br)ccc1NS(=O)(=O)c1ccc(OC(F)(F)F)cc1` [Compound 79], 101 to 500 µM; in that of `O=C(Nc1cc(Cl)ccc1Cl)c1cc(Br)ccc1NS(=O)(=O)c1ccc(Cl)cc1` [Compound 87], 51 to 100 µM. In the case of `COc1ccc(NC(=O)c2cc(Br)ccc2NS(=O)(=O)c2ccc(OC(F)(F)F)cc2)cc1` [Compound 56], the IC50 was in the range of 51 to 100 µM.

In the case of `O=C(Nc1ccc(Cl)c(Cl)c1)c1cc(Br)ccc1NS(=O)(=O)c1ccc(OC(F)(F)F)cc1` [Compound 59], the IC50 is 51 to 100 µM. Take `O=C(Nc1ccccc1Cl)c1cc(Br)ccc1NS(=O)(=O)c1ccc(Cl)cc1` [Compound 86]: the IC50 is 51 to 100 µM. As to `O=C(Nc1ccc(Cl)c(Cl)c1)c1cc(Br)ccc1NS(=O)(=O)c1ccc(Cl)c([N+](=O)[O-])c1` [Compound 113], the 50% inhibitory concentration (IC50) was in the range of 51 to 100 µM. With `O=C(NCc1ccc(Cl)cc1)c1cc(Br)ccc1NS(=O)(=O)c1ccc(OC(F)(F)F)cc1` [Compound 53], the half-maximal inhibitory concentration (IC50) is below 50 µM.

The assay is the same for the next values; noted with them: Table 3, 100 μM compound.
In the case of `O=C1OCc2ccc(NS(=O)(=O)c3ccc(C(F)(F)F)cc3)cc21` [Compound 161], the “% Inhib. At 100 μM” value was found to be 29%. Same read-out and setting: under `O=[N+]([O-])c1ccc(S(=O)(=O)n2cnc3ccccc32)cc1` [Compound 164] stands 26%; under `Nc1cc(Br)ccc1NS(=O)(=O)c1ccc(OC(F)(F)F)cc1` [Compound 150], 57%; under `O=C(NCc1cccc(C(F)(F)F)c1)c1cc(Br)ccc1NS(=O)(=O)c1ccc(OC(F)(F)F)cc1` [Compound 172], 96%. `Nc1cc(Br)ccc1N(c1ccc(OC(F)(F)F)cc1)S(=O)(=O)c1ccc(OC(F)(F)F)cc1` [Compound 136]: the “% Inhib. At 100 μM” value is on record as 76%. Still for that read-out and setting: in the case of `O=[N+]([O-])c1cc(Br)ccc1NS(=O)(=O)c1ccc(OC(F)(F)F)cc1` [Compound 147] it was 61%; in that of `Cc1ccc(S(=O)(=O)n2cc(/C=C/C(=O)O)c3ccccc32)cc1` [Compound 154], 52%; in that of `O=S(=O)(Nc1cc(Cl)c(Cl)cc1Cl)c1cc(C(F)(F)F)cc(C(F)(F)F)c1` [Compound 127], 101%. Still for that read-out and setting: under `NC(=O)c1ccccc1NS(=O)(=O)c1ccc(OC(F)(F)F)cc1` [Compound 166] stands 22%. `O=S(=O)(Nc1ccc(Oc2ccccc2)cc1)c1ccc(OC(F)(F)F)cc1` [Compound 129]: the “% Inhib. At 100 μM” value is recorded as 84%. The same measure, in the same setting: in the case of `O=C(Nc1ccc(I)cc1F)c1cc(Br)ccc1NS(=O)(=O)c1ccc(OC(F)(F)F)cc1` [Compound 171] it was 100%; in that of `CSc1ccc(NS(=O)(=O)c2ccc(OC(F)(F)F)cc2)cc1` [Compound 128], 88%. The same measure, in the same setting: in the case of `O=S(=O)(Nc1cc(C(F)(F)F)c(Cl)cc1Cl)c1cc(C(F)(F)F)cc(C(F)(F)F)c1` [Compound 146] it was 62%.

The assay is the same for the next values; noted with them: Table 4, phosphate uptake, read-out: IC50.
As to `CC(=O)c1cccc(NC(=O)Nc2ccc(Br)cc2P(=O)(O)O)c1` [Compound 199], the IC50 lay within 501 to 1000 µM.

Consider `COc1cccc(NC(=O)Nc2ccc(Br)cc2P(=O)(O)O)c1` [Compound 203], for which the 50% inhibitory concentration (IC50) was 501 to 1000 µM. In the case of `CC(C)c1ccc(NC(=O)Nc2ccc(Br)cc2P(=O)(O)O)cc1` [Compound 210], the IC50 was above 1500 µM. Still for that read-out and setting: under `Cc1cccc(C)c1NC(=O)Nc1ccc(Br)cc1P(=O)(O)O` [Compound 196] stands 501 to 1000 µM; under `O=C(Nc1ccc(Cl)c(C(F)(F)F)c1)Nc1ccc(Br)cc1P(=O)(O)O` [Compound 185], 101 to 500 µM. The same measure, in the same setting: under `O=C(Nc1ccccc1F)Nc1ccc(Br)cc1P(=O)(O)O` [Compound 200] stands 501 to 1000 µM; under `Cc1cc(C)cc(NC(=O)Nc2ccc(Br)cc2P(=O)(O)O)c1` [Compound 206], 1000 to 1500 µM. Still for that read-out and setting: under `Cc1ccc(NC(=O)Nc2ccc(Br)cc2P(=O)(O)O)cc1[N+](=O)[O-]` [Compound 190] stands 101 to 500 µM; under `O=C(Nc1cc(Cl)cc(C(F)(F)F)c1)Nc1ccc(Br)cc1P(=O)(O)O` [Compound 181], 51 to 100 µM; under `O=C(Nc1ccccc1)Nc1ccc(Br)cc1P(=O)(O)O` [Compound 205], 1000 to 1500 µM.

The same assay, now with this note: Table 5, 100 μM compound.
For `O=C(Nc1cccc(C(F)(F)F)c1)Nc1ccc(F)c([N+](=O)[O-])c1` [Compound 222], the “% Inhib. at 100 μM” value came out at 88%.

As for `CCOP(=O)(OCC)c1cc(Br)ccc1NC(=O)Nc1cccc(C(F)(F)F)c1` [Compound 226], the “% Inhib. at 100 μM” value is listed as 77%. Still for that read-out and setting: in the case of `O=C(NCc1ccc(Cl)c(Cl)c1)Nc1ccc(Br)cc1P(=O)([O-])[O-].[Na+].[Na+]` [Compound 221] it was 91%; in that of `O=C(Nc1ccc(Br)cc1)Nc1cccc(C(F)(F)F)c1` [Compound 227], 75%.

Take `O=C(Nc1cccc(F)c1)Nc1ccc(Br)cc1P(=O)(O)O` [Compound 229]: the “% Inhib. at 100 μM” value is listed as 73%.

Still in this assay, the particulars now being: Table 6, 100 μM compound.
With `COc1ccc(-c2cc(-c3ccco3)on2)cc1` [Compound 231], the “% Inhib. at 100 μM” value is given as 74%. Consider `c1ccc(Oc2ccc(-c3cc(-c4ccco4)on3)cc2)cc1` [Compound 232], for which the “% Inhib. at 100 μM” value is listed as 72%.

Staying with this assay, now noted: Table 7, phosphate uptake, read-out: IC50.
As for `Cn1nc(-c2ccc(Oc3ccccc3)cc2)cc1-c1cccc(F)c1` [Compound 243], the half-maximal inhibitory concentration (IC50) was above 1500 µM.

Consider `COc1ccc(-c2cc(-c3ccco3)n(C)n2)cc1` [Compound 240], for which the half-maximal inhibitory concentration (IC50) was in the range of 101 to 500 µM. For `Cn1nc(-c2ccc(O)cc2)cc1-c1cccc(F)c1` [Compound 241], the 50% inhibitory concentration (IC50) fell in the range of 101 to 500 µM.

Staying with this assay, now noted: Table 10, phosphate uptake, read-out: IC50.
Regarding `O=C(Nc1ccc(Cl)c(Cl)c1)c1cc(Cl)cc(Cl)c1O` [Compound 252], the IC50 lay within 51 to 100 µM. Regarding `CCOP(=O)(OCC)c1cc(Br)ccc1NC(=O)c1ccc(Cl)c(Cl)c1` [Compound 267], the half-maximal inhibitory concentration (IC50) was in the range of 501 to 1000 µM. Take `O=C(Nc1cc(C(F)(F)F)ccc1C(F)(F)F)c1cc(Br)cc(Br)c1O` [Compound 256]: the IC50 is 101 to 500 µM.

The same assay, now with this note: Table 11, phosphate uptake, read-out: IC50.
In the case of `O=C(/C=C/c1cccc(F)c1)c1cccc(O)c1` [Compound 277], the IC50 lay in the range of 501 to 1000 µM.

Still in this assay, the particulars now being: Table 12, 100 μM compound.
As to `O=S(=O)(Cc1ccc(C(F)(F)F)cc1)c1ccc(Cl)cc1` [Compound 291], the “% Inhib. at 100 μM” value turned out to be 0%.

As to `O=S(=O)(Cc1ccc(Br)cc1F)c1ccc(Cl)cc1` [Compound 288], the “% Inhib. at 100 μM” value worked out at 31%. With `O=S(=O)(Cc1ccccc1)c1ccccc1` [Compound 287], the “% Inhib. at 100 μM” value stood at 34%.

Staying with this assay, now noted: Table 13, phosphate uptake, read-out: IC50.
In the case of `O=S(=O)(O)c1cc(N=C=S)ccc1/C=C/c1ccc(N=C=S)cc1S(=O)(=O)O` [Compound 307], the 50% inhibitory concentration (IC50) is above 1500 µM. Take `O=S(=O)(O)c1cc(Nc2nc(Nc3ccccc3)nc(N(CCO)CCO)n2)ccc1/C=C/c1ccc(Nc2nc(Nc3ccccc3)nc(N(CCO)CCO)n2)cc1S(=O)(=O)O` [Compound 302]: the IC50 was 501 to 1000 µM. On the same count and under the same terms, in the case of `O=S(=O)(O)c1cc(NS(=O)(=O)c2cccc3ccccc23)ccc1/C=C/c1ccc(NS(=O)(=O)c2cccc3ccccc23)cc1S(=O)(=O)O` [Compound 299] it was 501 to 1000 µM; in that of `O=[N+]([O-])c1ccc(/C=C/c2ccc([N+](=O)[O-])cc2S(=O)(=O)O)c(S(=O)(=O)O)c1` [Compound 305], 1000 to 1500 µM.
